According to patent US6291673A, “Folic acid derivatives” (Purdue Research Foundation, priority 2000, dated 2001):
Where “and” joins values, the source holds several entries; their conditions need not be identical. Identical values can stand only once.

Tests used:
carboxypeptidase G [1] = experiment: Carboxypeptidase G enantiospecific hydrolysis of folic acid derivatives (HPLC of released pteroic acid); assay type: biochemical; conditions: Tris buffer with ZnCl2, 37° C., 2 h, pyrofolates and monoesters first hydrolysed in 0.25 M NaOH, error about ±2-3%
Procedure: Since it had been previously observed that guanidine bases are capable of racemizing acylated glutamates (under more forcing conditions than were employed in the reactions listed in Table 2), the optical purity of the folic acid 1 (=25a) and several of its derivatives which had been produced was evaluated. […] In order to assay the pyrofolates 8 and 9 as well as the α- and γ-monoesters of folic acid L-33a and L-33c, an initial mild basic hydrolysis was required prior to the enzyme assay. […] Control reactions on synthetic D-1=25a and DL-1=25a (Table 3, Entries 3,4) serve to confirm the error limits of the enzymatic method at about ±2-3%.
Determination of optical purity of folate derivatives listed in Table 3 using enzymatic hydrolysis with carboxypeptidase G:30:
The folic acid derivative (~2.5 mg) was dissolved in 1 mL Tris buffer containing 20 μg ZnCl2 and 50 microunit enzyme (Sigma Chemical Company) was added. The solution was incubated at 37° C. for 2 h. A 20 μL sample was tested by HPLC on a […] MICROSORB C-18 reverse phase column (Eluent A: 5 mM phosphate buffer; Eluent B: acetonitrile; flow rate: 1 mL/min; gradient: 0-5 min, 5% B, 10-15, 25% B). Folic acid was eluted at 4.1 min, pteroic acid at 10.6 min, methotrexate at 10.8 min, and amino-N10-methyl pteroic acid at 11.9 min. Peak area was used as the standard for analysis.
For folate derivatives, ~5 mg was first dissolved in 1 mL 0.25 M NaOH and incubated at room temperature for 1 h. Then the solution was acidified by 1 M HCl until precipitation. After centrifugation, washing, and drying, the ~2.5 mg yellow pellet was dissolved in 1 mL Tris buffer and reacted with enzyme under the conditions described above.

[2] = Storage stability of pteroylazide 27; assay type: physicochemical
Excerpt: The known impurities include ~4% pteroic acid 10, ~2% of the aniline (PteNH2) apparently resulting from Curtius rearrangement of 27, ~2% of pteroylamide (PteCO--NH2 11); and <1% of folic acid 1. […] Unlike some acyl azides, pteroylazide 27 is quite stable; samples of the lemon-yellow solid may be stored in the dark in a freezer for at least 12 months without appreciable decomposition.

[3] = molecular target: T1, cell surface folate receptors (Homo sapiens, UniProt P15328); experiment: Affinities of FITC-EDA-folate for cell surface folate receptors on KB cells; assay type: binding
T1 construct: KB cells overexpressing the receptor; endogenous in cells; host or cells: KB cells
Procedure: To determine the affinities of EDA-folate for cell surface folate receptors, the α- and γ-isomers were labeled with the fluorophore FITC and incubated with KB cells overexpressing the receptor. […] The low level of non-specific uptake observed with both isomers was probably due to the hydrophobicity of the FITC conjugates.

carboxypeptidase G [4] = conditions: footnote c of Table 3; cited from earlier work

T1 sequence (P15328 25-257): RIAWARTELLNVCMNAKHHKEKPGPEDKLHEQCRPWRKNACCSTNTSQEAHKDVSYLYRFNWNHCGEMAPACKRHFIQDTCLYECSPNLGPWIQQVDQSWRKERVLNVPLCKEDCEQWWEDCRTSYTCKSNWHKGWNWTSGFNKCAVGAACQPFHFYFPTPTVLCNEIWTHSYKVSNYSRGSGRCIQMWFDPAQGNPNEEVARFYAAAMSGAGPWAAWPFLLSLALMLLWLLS

Structure (SMILES) | % Hydrolysis (carboxypeptidase G [1]) | further results
Nc1nc2ncc(CNc3ccc(C(=O)N[C@H](CCC(=O)O)C(=O)O)cc3)nc2c(=O)[nH]1 [Compound D-25a] | 3.0% | –
[N-]=[N+]=NC(=O)c1ccc(NCc2cnc3nc(N)[nH]c(=O)c3n2)cc1 [Compound 27, Pteroylazide] | – | shelf life ([2]; room temperature, protected from light): at least a month; HPLC profile after exposure to light ([2]; samples exposed to light (darken appreciably)): not substantially degraded; storage time without appreciable decomposition ([2]; solid, in the dark in a freezer): at least 12 months
Nc1nc(O)c2nc(CNc3ccc(C(=O)N[C@@H](CCC(=O)NCCNC(=S)Nc4ccc5c(c4)C(=O)OC54c5ccc(O)cc5Oc5cc(O)ccc54)C(=O)O)cc3)cnc2n1 [FITC-EDA-folate(γ)] | – | Kd ([3]; KB cells overexpressing the receptor, read-out: concentration required to reach 50% maximal binding): 1.6 nM
Nc1nc2ncc(CNc3ccc(C(=O)N[C@@H](CCC(=O)O)C(=O)NCCNC(=S)Nc4ccc5c(c4)C(=O)OC54c5ccc(O)cc5Oc5cc(O)ccc54)cc3)nc2c(=O)[nH]1 [α-isomer of FITC-EDA-folate] | – | affinity for the cell surface receptors ([3]; KB cells overexpressing the receptor): virtually no affinity
Nc1nc2ncc(CNc3ccc(C(=O)N4C(=O)CCC4C(=O)O)cc3)nc2c(=O)[nH]1 (centres unmarked) [Compound 9, Pyrofolic acid] | 51.7% | –
Nc1nc2ncc(CN(C(=O)C(F)(F)F)c3ccc(C(=O)N4C(=O)CCC4C(=O)O)cc3)nc2c(=O)[nH]1 (centres unmarked) [Compound 8, N10-Trifluoroacetylpyrofolic acid] | 49.5% | –
CN(Cc1cnc2nc(N)nc(N)c2n1)c1ccc(C(=O)N[C@@H](CCC(=O)O)C(=O)O)cc1 [Compound L-34d, L-methotrexate, reference compound] | 96.1% and 99.2% | –
CN(Cc1cnc2nc(N)nc(N)c2n1)c1ccc(C(=O)N[C@H](CCC(=O)O)C(=O)O)cc1 [Compound D-34d] | – | hydrolysis by carboxypeptidase G (carboxypeptidase G [4]): not to be hydrolyzed
Nc1nc2ncc(CNc3ccc(C(=O)NC(CCC(=O)O)C(=O)O)cc3)nc2c(=O)[nH]1 (racemic) [D, L-25a] | 52.3% | –

Continued, in another order:

% Hydrolysis (carboxypeptidase G [1]) | Structure (SMILES) | further results
85.9% and 96.7% | CC(C)=CCOC(=O)[C@H](CCC(=O)O)NC(=O)c1ccc(NCc2cnc3nc(N)[nH]c(=O)c3n2)cc1 [Compound L-33c] | –
54.4% | COC(=O)CCC(NC(=O)c1ccc(NCc2cnc3nc(N)[nH]c(=O)c3n2)cc1)C(=O)O (racemic) [DL-33a, (DL)-methyl folate (γ)] | –
96.7% | Nc1nc2ncc(CNc3ccc(C(=O)N[C@@H](CCC(=O)O)C(=O)O)cc3)nc2c(=O)[nH]1 [Compound L-1, Folic acid] | % Hydrolysis (carboxypeptidase G [1]; listed as L-25a): 98.4% and 98.6%; competition with the receptor binding of FITC-EDA-folate(γ) ([3]; excess folic acid in the incubation medium, KB cells): effectively competed
96.8% | COC(=O)CC[C@H](NC(=O)c1ccc(NCc2cnc3nc(N)[nH]c(=O)c3n2)cc1)C(=O)O [Compound L-33a, Tetramethylguanidinium (L)-methyl folate (γ)] | –
